Literature values as cited in patent US8481087B2, “Withania somnifera plant extract and method of preparation thereof” (National Brain Research Centre, priority 2008, dated 2013).

Test system: severely damaged neurons
Details: severely damaged neurons in vitro

**Q.** For `CC1=C(C)C(=O)O[C@@H]([C@](C)(O)[C@H]2CC[C@H]3[C@@H]4[C@@H]5O[C@@H]5[C@@]5(O)CC=CC(=O)[C@]5(C)[C@H]4CC[C@]23C)C1` [Withanolide-A], which “neurite regeneration and synapse reconstruction” value is on record?
**A.** regenerate neurites and reconstruct synapses
